Data taken from patent US8461305B2, “L-fucose α1→6 specific lectin” (J-Oil Mills, Inc., priority 2008, dated 2013).

Columns and labels:
[1] = frontal affinity chromatography (FAC), association constant to PA sugar chains without L-fucose; format: binding; conditions: 25 degrees C.
Outline: (§1)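 Lectin coupled via primary amines to NHS-activated sepharose in a miniature column, run in TBS (pH 7.4) at 0.125 ml/min and 25 degrees C. PA sugar chains (3.75 nM or 7.5 nM) applied in excess, with elution monitored by fluorescence (ex 310/em 380 nm). Ka calculated from front-end delay (V−Vo) versus PA rhamnose and effective ligand amount (Bt).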

[2] = frontal affinity chromatography (FAC), association constant to PA sugar chains having α1→6 L-fucose; format: binding; conditions: 25 degrees C.
Outline: as §1

Aspergillus oryzae lectin [AOL, reference compound]
association constant Ka ([1]; Sugar chain No. 001): <1000 M⁻¹ | association constant Ka ([1]; Sugar chain No. 002): <1000 M⁻¹ | association constant Ka ([1]; Sugar chain No. 003): <1000 M⁻¹ | association constant Ka ([1]; Sugar chain No. 004): <1000 M⁻¹ | association constant Ka ([1]; Sugar chain No. 005): 7300 M⁻¹ | association constant Ka ([1]; Sugar chain No. 006): <1000 M⁻¹ | association constant Ka ([1]; Sugar chain No. 007): <1000 M⁻¹ | association constant Ka ([1]; Sugar chain No. 008): 69000 M⁻¹ | association constant Ka ([1]; Sugar chain No. 009): <1000 M⁻¹ | association constant Ka ([1]; Sugar chain No. 010): <1000 M⁻¹ | association constant Ka ([1]; Sugar chain No. 011): <1000 M⁻¹ | association constant Ka ([1]; Sugar chain No. 012): <1000 M⁻¹ | association constant Ka ([1]; Sugar chain No. 013): <1000 M⁻¹ | association constant Ka ([1]; Sugar chain No. 014): <1000 M⁻¹ | association constant Ka ([1]; Sugar chain No. 101): <1000 M⁻¹ | association constant Ka ([1]; Sugar chain No. 103): <1000 M⁻¹ | association constant Ka ([1]; Sugar chain No. 104): <1000 M⁻¹ | association constant Ka ([1]; Sugar chain No. 105): <1000 M⁻¹ | association constant Ka ([1]; Sugar chain No. 107): <1000 M⁻¹ | association constant Ka ([1]; Sugar chain No. 108): <1000 M⁻¹ | association constant Ka ([1]; Sugar chain No. 301): 18000 M⁻¹ | association constant Ka ([1]; Sugar chain No. 304): 20000 M⁻¹ | association constant Ka ([1]; Sugar chain No. 305): <1000 M⁻¹ | association constant Ka ([1]; Sugar chain No. 307): <1000 M⁻¹ | association constant Ka ([1]; Sugar chain No. 308): 20000 M⁻¹ | association constant Ka ([1]; Sugar chain No. 313): <1000 M⁻¹ | association constant Ka ([1]; Sugar chain No. 314): <1000 M⁻¹ | association constant Ka ([1]; Sugar chain No. 323): <1000 M⁻¹ | association constant Ka ([1]; Sugar chain No. 501): <1000 M⁻¹ | association constant Ka ([1]; Sugar chain No. 502): <1000 M⁻¹ | association constant Ka ([1]; Sugar chain No. 503): <1000 M⁻¹ | association constant Ka ([1]; Sugar chain No. 504): <1000 M⁻¹ | association constant Ka ([1]; Sugar chain No. 701): <1000 M⁻¹ | association constant Ka ([1]; Sugar chain No. 702): <1000 M⁻¹ | association constant Ka ([1]; Sugar chain No. 703): <1000 M⁻¹ | association constant Ka ([1]; Sugar chain No. 704): <1000 M⁻¹ | association constant Ka ([1]; Sugar chain No. 705): <1000 M⁻¹ | association constant Ka ([1]; Sugar chain No. 706): <1000 M⁻¹ | association constant Ka ([1]; Sugar chain No. 707): <1000 M⁻¹ | association constant Ka ([1]; Sugar chain No. 708): <1000 M⁻¹ | association constant Ka ([1]; Sugar chain No. 709): <1000 M⁻¹ | association constant Ka ([1]; Sugar chain No. 710): <1000 M⁻¹ | association constant Ka ([1]; Sugar chain No. 711): <1000 M⁻¹ | association constant Ka ([1]; Sugar chain No. 712): <1000 M⁻¹ | association constant Ka ([1]; Sugar chain No. 713): <1000 M⁻¹ | association constant Ka ([1]; Sugar chain No. 715): <1000 M⁻¹ | association constant Ka ([1]; Sugar chain No. 716): <1000 M⁻¹ | association constant Ka ([1]; Sugar chain No. 717): <1000 M⁻¹ | association constant Ka ([1]; Sugar chain No. 724): <1000 M⁻¹ | association constant Ka ([1]; Sugar chain No. 725): <1000 M⁻¹ | association constant Ka ([1]; Sugar chain No. 728 (as listed in Table 7)): <1000 M⁻¹ | association constant Ka ([1]; Sugar chain No. 732): <1000 M⁻¹ | association constant Ka ([1]; Sugar chain No. 733): <1000 M⁻¹ | association constant Ka ([1]; Sugar chain No. 734): <1000 M⁻¹ | association constant Ka ([1]; Sugar chain No. 735): <1000 M⁻¹ | association constant Ka ([1]; Sugar chain No. 736): <1000 M⁻¹ | association constant Ka ([1]; Sugar chain No. 737): <1000 M⁻¹ | association constant Ka ([1]; Sugar chain No. 738): <1000 M⁻¹ | association constant Ka ([1]; Sugar chain No. 901): <1000 M⁻¹ | association constant Ka ([1]; Sugar chain No. 902): <1000 M⁻¹ | association constant Ka ([1]; Sugar chain No. 903): <1000 M⁻¹ | association constant Ka ([1]; Sugar chain No. 905): <1000 M⁻¹ | association constant Ka ([1]; Sugar chain No. 906): <1000 M⁻¹ | association constant Ka ([1]; Sugar chain No. 907): <1000 M⁻¹ | association constant Ka ([2]; Sugar chain No. 015): 130000 M⁻¹ | association constant Ka ([2]; Sugar chain No. 201): 120000 M⁻¹ | association constant Ka ([2]; Sugar chain No. 202): 120000 M⁻¹ | association constant Ka ([2]; Sugar chain No. 203): 130000 M⁻¹ | association constant Ka ([2]; Sugar chain No. 401): 140000 M⁻¹ | association constant Ka ([2]; Sugar chain No. 402): 160000 M⁻¹ | association constant Ka ([2]; Sugar chain No. 403): 130000 M⁻¹ | association constant Ka ([2]; Sugar chain No. 404): 150000 M⁻¹ | association constant Ka ([2]; Sugar chain No. 405): 130000 M⁻¹ | association constant Ka ([2]; Sugar chain No. 406): 110000 M⁻¹ | association constant Ka ([2]; Sugar chain No. 407): 110000 M⁻¹ | association constant Ka ([2]; Sugar chain No. 410): 100000 M⁻¹ | association constant Ka ([2]; Sugar chain No. 413): 79000 M⁻¹ | association constant Ka ([2]; Sugar chain No. 418): 63000 M⁻¹ | association constant Ka ([2]; Sugar chain No. 601): 140000 M⁻¹ | association constant Ka ([2]; Sugar chain No. 602): 140000 M⁻¹
